Values joined by “and” are separate entries in the source; they are usually repeats but may differ in a detail not shown here. Equal entries are not always repeated.

In the experiment the test system is A498 complex spheroid viability. Kind of experiment: Anticancer human tumor A498 cell line growth inhibition.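 For all read-outs here: spheroids exposed to agents for seven days before readout.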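 For viability, T/C: 100% = DMSO vehicle-treated spheroids.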 As to conditions: for viability, T/C: stronger effect = lower value. The method in brief: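 Drug combinations with the LSD1 inhibitor iadademstat tested on tumor cells co-cultured as spheroids with endothelial cells and mesenchymal stem cells. Concentrations descended in half-log increments from clinical Cmax or 10 microM.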

Setting [1] is: curve of first compound, second compound 0.1 µM.
Where [2] appears, read: curve of first compound, second compound 0.316 µM.
[3] abbreviates: curve of first compound, second compound 1 µM.
Where [4] appears, read: curve of first compound, second compound 3.16 µM.
[5] abbreviates: curve of first compound, second compound 10 µM.
Setting [6] is: second compound 0.1 µM, first compound 0.000316 µM.
[7] abbreviates: second compound 0.1 µM, first compound 0.001 µM.
Where [8] appears, read: second compound 0.1 µM, first compound 0.00316 µM.
Where [9] appears, read: second compound 0.1 µM, first compound 0.01 µM.
Where [10] appears, read: second compound 0.1 µM, first compound 0.0316 µM.
Where [11] appears, read: second compound 0.1 µM, first compound 0.1 µM.
Setting [12] is: second compound 0.316 µM, first compound 0.000316 µM.
The mark [13] stands for this setting: second compound 0.316 µM, first compound 0.001 µM.
[14] abbreviates: second compound 0.316 µM, first compound 0.00316 µM.
Setting [15] is: second compound 0.316 µM, first compound 0.01 µM.
Where [16] appears, read: second compound 0.316 µM, first compound 0.0316 µM.
Setting [17] is: second compound 0.316 µM, first compound 0.1 µM.
[18] abbreviates: second compound 1 µM, first compound 0.000316 µM.
[19] abbreviates: second compound 1 µM, first compound 0.001 µM.
Setting [20] is: second compound 1 µM, first compound 0.00316 µM.
[21] abbreviates: second compound 1 µM, first compound 0.01 µM.
Setting [22] is: second compound 1 µM, first compound 0.0316 µM.
Where [23] appears, read: second compound 1 µM, first compound 0.1 µM.
Setting [24] is: second compound 3.16 µM, first compound 0.000316 µM.
[25] abbreviates: second compound 3.16 µM, first compound 0.001 µM.
Setting [26] is: second compound 3.16 µM, first compound 0.00316 µM.
[27] abbreviates: second compound 3.16 µM, first compound 0.01 µM.
The mark [28] stands for this setting: second compound 3.16 µM, first compound 0.0316 µM.
Where [29] appears, read: second compound 3.16 µM, first compound 0.1 µM.
Where [30] appears, read: second compound 10 µM, first compound 0.000316 µM.
Setting [31] is: second compound 10 µM, first compound 0.001 µM.
The mark [32] stands for this setting: second compound 10 µM, first compound 0.00316 µM.
[33] abbreviates: second compound 10 µM, first compound 0.01 µM.
Setting [34] is: second compound 10 µM, first compound 0.0316 µM.
The mark [35] stands for this setting: second compound 10 µM, first compound 0.1 µM.
The mark [36] stands for this setting: second compound 0.1 µM, first compound 0.316 µM.
Setting [37] is: second compound 0.1 µM, first compound 1 µM.
Where [38] appears, read: second compound 0.1 µM, first compound 3.16 µM.
Where [39] appears, read: second compound 0.1 µM, first compound 10 µM.
Setting [40] is: second compound 0.316 µM, first compound 0.316 µM.
[41] abbreviates: second compound 0.316 µM, first compound 1 µM.
[42] abbreviates: second compound 0.316 µM, first compound 3.16 µM.
Setting [43] is: second compound 0.316 µM, first compound 10 µM.
[44] abbreviates: second compound 1 µM, first compound 0.316 µM.
Where [45] appears, read: second compound 1 µM, first compound 1 µM.
The mark [46] stands for this setting: second compound 1 µM, first compound 3.16 µM.
Setting [47] is: second compound 1 µM, first compound 10 µM.
Setting [48] is: second compound 3.16 µM, first compound 0.316 µM.
The mark [49] stands for this setting: second compound 3.16 µM, first compound 1 µM.
[50] abbreviates: second compound 3.16 µM, first compound 3.16 µM.
The mark [51] stands for this setting: second compound 3.16 µM, first compound 10 µM.
Setting [52] is: second compound 10 µM, first compound 0.316 µM.
Setting [53] is: second compound 10 µM, first compound 1 µM.
The mark [54] stands for this setting: second compound 10 µM, first compound 3.16 µM.
[55] abbreviates: second compound 10 µM, first compound 10 µM.

In the case of `CC[C@@]1(O)C(=O)OCc2c1cc1n(c2=O)Cc2cc3c(CN(C)C)c(O)ccc3nc2-1` + NC1CC1c1ccc(-c2cccc(O)c2)cc1, the IC50 runs as follows: under setting [1], 0.0425 µM; under setting [2], 0.0437 µM; under setting [3], 0.0378 µM; under setting [4], 0.0302 µM; under setting [5], 0.0261 µM. In addition, the viability, T/C reads like this: under setting [6], 105%; under setting [7], 106%; under setting [8], 79.1%; under setting [9], 76.4%; under setting [10], 60.6%; under setting [11], 29.8%. In addition, the viability, T/C is 110% under setting [12]; 103% under setting [13]; 82.2% under setting [14]; 73.1% under setting [15]; 59.6% under setting [16]; 33.8% under setting [17]. Also, the viability, T/C under setting [18] was 102%; the viability, T/C under setting [19] was 103%; the viability, T/C under setting [20] was 86.5%; the viability, T/C under setting [21] was 69.4%; the viability, T/C under setting [22] is 55.8%; the viability, T/C under setting [23] was 32.9%. The viability, T/C reads like this: under setting [24], 104%; under setting [25], 95.4%; under setting [26], 74.6%; under setting [27], 60.5%; under setting [28], 58.8%; under setting [29], 29.5%. For the same compound, the viability, T/C is 103% under setting [30]; 92.4% under setting [31]; 75.8% under setting [32]; 65.5% under setting [33]; 49% under setting [34]; 27.7% under setting [35].

`O=C(c1cc(Cc2n[nH]c(=O)c3ccccc23)ccc1F)N1CCN(C(=O)C2CC2)CC1`: the viability, T/C was 99% and 102% (compound 0.0316 µM); 108% and 105% (compound 0.1 µM); 96% and 101% (compound 0.316 µM); 102% and 101% (compound 1 µM); 103% and 93.4% (compound 3.16 µM); 88.9% and 84.9% (compound 10 µM). The IC50 (curve of compound) was > 10 µM.

On to `CC(C)CC(NC(=O)C(Cc1ccccc1)NC(=O)c1cnccn1)B(O)O` (stereo unspecified) + NC1CC1c1ccc(-c2cccc(O)c2)cc1, for which the IC50 under setting [1] worked out at 0.000661 µM; the IC50 under setting [2] worked out at 0.00069 µM; the IC50 under setting [3] was found to be 0.00066 µM; the IC50 under setting [4] stood at 0.000598 µM; the IC50 under setting [5] is 0.000604 µM. The viability, T/C under setting [6] is 105%; the viability, T/C under setting [7] was 19.2%; the viability, T/C under setting [8] was 2.39%; the viability, T/C under setting [9] was 0.87%; the viability, T/C under setting [10] is 1%; the viability, T/C under setting [11] is 0.39%. Moreover, the viability, T/C was 109% under setting [12]; 21.9% under setting [13]; 3.05% under setting [14]; 1.15% under setting [15]; 0.51% under setting [16]; 0.37% under setting [17]. The viability, T/C runs as follows: under setting [18], 106%; under setting [19], 18.4%; under setting [20], 2.67%; under setting [21], 0.79%; under setting [22], 0.63%; under setting [23], 0.4%. Also, the viability, T/C is 95.6% under setting [24]; 13.3% under setting [25]; 2.6% under setting [26]; 1.41% under setting [27]; 0.42% under setting [28]; 0.5% under setting [29]. Also, the viability, T/C by setting is: under setting [30], 93.7%; under setting [31], 15.9%; under setting [32], 2.17%; under setting [33], 0.62%; under setting [34], 0.39%; under setting [35], 0.43%.

Turning to `O=C(c1cc(Cc2n[nH]c(=O)c3ccccc23)ccc1F)N1CCN(C(=O)C2CC2)CC1` + NC1CCC(NC2CC2c2ccccc2)CC1, the IC50 was > 10 µM under setting [1]; > 10 µM under setting [2]; > 10 µM under setting [3]; > 10 µM under setting [4]; > 10 µM under setting [5]. The viability, T/C reads like this: under setting [10], 85.1%; under setting [11], 82.7%; under setting [36], 89.1%; under setting [37], 85.8%; under setting [38], 84.7%; under setting [39], 82.1%. In addition, the viability, T/C is, setting by setting: under setting [16], 92.3%; under setting [17], 93.3%; under setting [40], 94.4%; under setting [41], 94.4%; under setting [42], 85%; under setting [43], 84.4%. Moreover, the viability, T/C reads like this: under setting [22], 82.3%; under setting [23], 87.4%; under setting [44], 91.1%; under setting [45], 87.4%; under setting [46], 79.5%; under setting [47], 75.9%. The viability, T/C was 79.8% under setting [28]; 85.3% under setting [29]; 69.5% under setting [48]; 85.5% under setting [49]; 79.2% under setting [50]; 77.1% under setting [51]. Moreover, the viability, T/C by setting is: under setting [34], 71%; under setting [35], 73.7%; under setting [52], 74.4%; under setting [53], 74.1%; under setting [54], 62.5%; under setting [55], 66.8%.

Turning to `Nc1ncn(C2CC(O)C(CO)S2)c(=O)n1` (stereo unspecified), the viability, T/C runs as follows: (compound 0.000949 µM) 105% and 109%; (compound 0.003 µM) 104% and 117%; (compound 0.00949 µM) 99.6% and 102%; (compound 0.03 µM) 85.2% and 89.5%; (compound 0.0949 µM) 59.4% and 70%; (compound 0.3 µM) 33.8% and 40%. Under “curve of compound”, the IC50 is 0.144 µM and 0.202 µM.

As for `CC(C)c1c(-c2ccccc2)nc2c(C#N)c[nH]n2c1=O` + NC1CC1c1ccc(-c2cccc(O)c2)cc1, the IC50 reads like this: under setting [1], > 10 µM; under setting [2], > 10 µM; under setting [3], > 10 µM; under setting [4], > 10 µM; under setting [5], > 10 µM. Also, the viability, T/C reads like this: under setting [10], 98%; under setting [11], 113%; under setting [36], 106%; under setting [37], 102%; under setting [38], 104%; under setting [39], 108%. Moreover, the viability, T/C is 104% under setting [16]; 101% under setting [17]; 101% under setting [40]; 107% under setting [41]; 99.1% under setting [42]; 97.4% under setting [43]. Further, the viability, T/C was 93.4% under setting [22]; 101% under setting [23]; 95.6% under setting [44]; 99.5% under setting [45]; 89% under setting [46]; 98% under setting [47]. Moreover, the viability, T/C by setting is: under setting [28], 97.4%; under setting [29], 94%; under setting [48], 97.5%; under setting [49], 94.7%; under setting [50], 94.9%; under setting [51], 98.5%. For the same compound, the viability, T/C reads like this: under setting [34], 86.7%; under setting [35], 92%; under setting [52], 91.3%; under setting [53], 97.4%; under setting [54], 96.1%; under setting [55], 94.9%.

`Nc1ncn(C2CC(O)C(CO)O2)c(=O)n1` (stereo unspecified): the viability, T/C runs as follows: (compound 0.00316 µM) 104% and 103%; (compound 0.01 µM) 103% and 107%; (compound 0.0316 µM) 97.1% and 92.8%; (compound 0.1 µM) 84.8% and 88.6%; (compound 0.316 µM) 68.6% and 82.9%; (compound 1 µM) 52.9% and 73.7%. Moreover, the IC50 (curve of compound) was > 1 µM.

What is called IC50 is the midpoint of a concentration-inhibition curve. What is called viability, T/C is the result in the treated group divided by that in the control group, in per cent.

Values taken from PubChem BioAssay AID1918947 (Molecular Pharmacology Branch, DTP, NCI, 2023).
